Measurements published in patent US20240246967A1, “AXL COMPOUNDS” (ARCUS BIOSCIENCES, INC., priority 2021, published 2024).
pIC50: −log10 of the molar value.

How the values were obtained:
human TYRO3 = molecular target: T1, human TYRO3 (Homo sapiens, UniProt Q06418); experiment: HTRF KinEASE-TK biochemical potency assay, TYRO3; conditions: 1 nM TYRO3, 700 μM ATP, 800 nM TK Substrate-biotin
T1 construct: purchased Invitrogen
T1 sequence (Q06418 41-890): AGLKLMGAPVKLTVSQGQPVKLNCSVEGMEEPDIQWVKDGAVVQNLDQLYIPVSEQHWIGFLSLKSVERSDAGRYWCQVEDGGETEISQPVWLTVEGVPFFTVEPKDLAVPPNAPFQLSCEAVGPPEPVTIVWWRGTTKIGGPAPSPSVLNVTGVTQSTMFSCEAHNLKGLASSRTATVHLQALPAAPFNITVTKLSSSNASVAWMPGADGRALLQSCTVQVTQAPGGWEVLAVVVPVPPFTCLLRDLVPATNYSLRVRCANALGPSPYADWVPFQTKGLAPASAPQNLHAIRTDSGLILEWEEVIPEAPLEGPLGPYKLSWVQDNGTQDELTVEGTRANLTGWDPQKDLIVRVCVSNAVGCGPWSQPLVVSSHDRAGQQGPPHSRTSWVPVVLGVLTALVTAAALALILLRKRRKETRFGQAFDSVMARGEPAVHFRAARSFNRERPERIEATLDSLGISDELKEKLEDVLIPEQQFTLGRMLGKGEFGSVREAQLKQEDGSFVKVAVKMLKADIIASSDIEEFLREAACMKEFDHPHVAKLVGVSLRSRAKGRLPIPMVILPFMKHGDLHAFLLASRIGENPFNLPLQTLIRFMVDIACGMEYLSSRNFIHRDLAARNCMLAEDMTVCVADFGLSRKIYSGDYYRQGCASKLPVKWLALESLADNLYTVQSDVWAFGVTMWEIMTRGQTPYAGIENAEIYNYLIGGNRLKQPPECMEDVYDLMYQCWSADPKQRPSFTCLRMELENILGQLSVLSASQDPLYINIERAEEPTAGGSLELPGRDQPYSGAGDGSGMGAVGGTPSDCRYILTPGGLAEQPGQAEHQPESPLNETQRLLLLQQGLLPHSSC
Method: (§1) Purified recombinant human AXL, TYRO3 and MER proteins were purchased from Invitrogen™. 10 nM AXL, 2 nM TYRO3 or MER were incubated with varying concentrations of compounds in 50 mM HEPES, pH 7.4, 10 mM MgCl2, 0.01% BSA, 1 mM DTT and 2% DMSO in a total volume of 20 μl in a 384-well microplate (Corning™ #3640) at RT for 1 h. The AXL, TYRO3 and MER enzymatic reaction was initiated by transferring 10 μl of enzyme and compound mixture into 10 μl of 1.6 μM TK Substrate-biotin (HTRF® KinEASE-TK kit, Cisbio) and 1400 μM ATP pre-incubated in 50 mM HEPES, pH 7.4, 10 mM MgCl2, 0.01% BSA, 1 mM DTT in a 384-well microplate (Corning™ #3640) at RT, giving the final reaction conditions: 5 nM AXL, 1 nM TYRO3 or MER, 800 nM TK Substrate-biotin and 700 μM ATP in 50 mM HEPES, pH 7.4, 10 mM MgCl2, 0.01% BSA, 1 mM DTT and 1% DMSO with varying concentrations of compounds. Following 2 h incubation at RT, the AXL, TYRO3 and MER enzymatic reaction was stopped by transfer of 10 μl of reaction into 10 μl of detection mix (400 nM Streptavidin-XL665, 200-fold dilution TK Antibody-Cryptate and detection buffer, HTRF® KinEASE-TK kit, Cisbio) in a white 384-well microplate (Perkin Elmer, OptiPlate 384). After 1 h incubation at RT, the plate was put into a plate reader (Evision) to read at 665/620 nm (acceptor/donor) for HTRF. The value of the DMSO blank (MIN inhibition=100% activity) was used as a negative control. The positive control was established by adding 5 μl of enzyme and DMSO mixture into 10 μl of detection mix followed by addition of 5 μl of TK Substrate-biotin and ATP mixture (MAX inhibition=0% activity). To calculate the percent activity, Equation 1 was used. Ratio 665/620 is the value at a given compound concentration: […]

Axl = molecular target: T2, Axl (Homo sapiens, UniProt P30530); experiment: HTRF KinEASE-TK biochemical potency assay, AXL; design: purchased Invitrogen; conditions: 5 nM AXL, 700 μM ATP, 800 nM TK Substrate-biotin
T2 sequence (P30530 26-894): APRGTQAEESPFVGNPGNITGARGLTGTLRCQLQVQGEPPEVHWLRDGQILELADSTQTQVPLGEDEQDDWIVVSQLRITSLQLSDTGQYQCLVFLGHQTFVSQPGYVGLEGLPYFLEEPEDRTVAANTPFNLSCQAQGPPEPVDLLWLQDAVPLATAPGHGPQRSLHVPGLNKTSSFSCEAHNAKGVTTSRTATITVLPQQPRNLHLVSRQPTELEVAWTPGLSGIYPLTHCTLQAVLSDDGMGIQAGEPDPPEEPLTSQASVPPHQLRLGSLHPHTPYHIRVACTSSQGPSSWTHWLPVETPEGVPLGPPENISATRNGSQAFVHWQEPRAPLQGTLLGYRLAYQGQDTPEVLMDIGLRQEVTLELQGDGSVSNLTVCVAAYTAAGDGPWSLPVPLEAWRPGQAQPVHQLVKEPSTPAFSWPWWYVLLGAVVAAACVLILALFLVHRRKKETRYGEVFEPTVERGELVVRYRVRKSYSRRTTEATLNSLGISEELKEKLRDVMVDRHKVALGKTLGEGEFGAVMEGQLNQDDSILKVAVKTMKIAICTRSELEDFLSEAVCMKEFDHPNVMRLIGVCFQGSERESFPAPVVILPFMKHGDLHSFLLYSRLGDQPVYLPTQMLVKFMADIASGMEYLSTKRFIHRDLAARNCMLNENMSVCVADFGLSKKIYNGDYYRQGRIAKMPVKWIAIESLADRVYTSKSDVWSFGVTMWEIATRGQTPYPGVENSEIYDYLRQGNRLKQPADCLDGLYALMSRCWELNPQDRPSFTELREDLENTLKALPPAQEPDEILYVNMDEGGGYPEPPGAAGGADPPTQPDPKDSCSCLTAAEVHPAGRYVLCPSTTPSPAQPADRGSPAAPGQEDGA
Method: as §1

SMILES | pIC50 (human TYRO3) | pIC50 (Axl)
C[C@H]1CCCN1C1CCc2ccc(-c3cnc4[nH]nc(-c5ccc(S(=O)(=O)C6CC6)cc5)c4c3)cc2CC1 (stereo partly drawn) [Example 24, 3-(4-(Cyclopropylsulfonyl)phenyl)-5-(7-((S)-2-methylpyrrolidin-1-yl)-6,7,8,9-tetrahydro-5H-benzo[7]annulen-2-yl)-1H-pyrazolo[3,4-b]pyridine] | 6.00 to 7.00 | > 7.00
C[C@@H]1CCCN1C1(C)CCc2ccc(-c3cnc4[nH]nc(-c5ccc(S(=O)(=O)C6CC6)c(F)c5)c4c3)cc2CC1 (stereo partly drawn) [Example 25, (2R)-1-(2-{3-[4-(Cyclopropanesulfonyl)-3-fluorophenyl]-1H-pyrazolo[3,4-b]pyridin-5-yl}-7-methyl-6,7,8,9-tetrahydro-5H-benzo[7]annulen-7-yl)-2-methylpyrrolidine] | > 7.00 | > 7.00
O=S(=O)(c1ccc(-c2n[nH]c3ncc(-c4ccc5c(c4)CCN(C4CCOCC4)CC5)cc23)cc1)C1CC1 [Example 26, 7-{3-[4-(Cyclopropanesulfonyl)phenyl]-1H-pyrazolo[3,4-b]pyridin-5-yl}-3-(oxan-4-yl)-2,3,4,5-tetrahydro-1H-3-benzazepine] | 6.00 to 7.00 | > 7.00
O=S(=O)(c1ccc(-c2n[nH]c3ncc(-c4ccc5c(c4)CCN(CC4CCOC4)CC5)cc23)cc1)C1CC1 (stereo not drawn) [Example 27, 7-{3-[4-(Cyclopropanesulfonyl)phenyl]-1H-pyrazolo[3,4-b]pyridin-5-yl}-3-[(oxolan-3-yl)methyl]-2,3,4,5-tetrahydro-1H-3-benzazepine] | < 6.00 | > 7.00
CS(=O)(=O)c1ccc(-c2n[nH]c3ncc(-c4ccc5c(c4)CCN(C4CCCC4)CC5)cc23)cc1 [Example 30, 3-Cyclopentyl-7-(3-(4-(methylsulfonyl)phenyl)-1H-pyrazolo[3,4-b]pyridin-5-yl)-2,3,4,5-tetrahydro-1H-benzo[d]azepine] | > 7.00 | > 7.00
CS(=O)(=O)c1ccc(-c2n[nH]c3ncc(-c4ccc5c(c4)CCN(C4CCCC4)CC5)cc23)cc1Cl [Example 31, 7-(3-(3-Chloro-4-(methylsulfonyl)phenyl)-1H-pyrazolo[3,4-b]pyridin-5-yl)-3-cyclopentyl-2,3,4,5-tetrahydro-1H-benzo[d]azepine] | > 7.00 | > 7.00
CS(=O)(=O)c1ccc(-c2n[nH]c3ncc(-c4ccc5c(c4)CCN(C4CCCC4)CC5)cc23)cc1F [Example 32, 3-Cyclopentyl-7-(3-(3-fluoro-4-(methylsulfonyl)phenyl)-1H-pyrazolo[3,4-b]pyridin-5-yl)-2,3,4,5-tetrahydro-1H-benzo[d]azepine] | 6.00 to 7.00 | > 7.00
COCCN1CCc2ccc(-c3cnc4[nH]nc(-c5ccc(C(C)(C)O)c(Cl)c5)c4c3)cc2CC1 [Example 34, 2-(2-Chloro-4-(5-(3-(2-methoxyethyl)-2,3,4,5-tetrahydro-1H-benzo[d]azepin-7-yl)-1H-pyrazolo[3,4-b]pyridin-3-yl)phenyl)propan-2-ol] | 6.00 to 7.00 | > 7.00
C[C@@H]1CCCN1C1CCc2ccc(-c3cnc4[nH]nc(-c5ccc(C(C)(C)O)c(Cl)c5)c4c3)cc2CC1 (stereo partly drawn) [Example 35, 2-(2-Chloro-4-(5-(7-((R)-2-methylpyrrolidin-1-yl)-6,7,8,9-tetrahydro-5H-benzo[7]annulen-2-yl)-1H-pyrazolo[3,4-b]pyridin-3-yl)phenyl)propan-2-ol] | 6.00 to 7.00 | > 7.00
C[C@H]1CCCN1C1CCc2ccc(-c3cnc4[nH]nc(-c5ccc(S(C)(=O)=O)cc5)c4c3)cc2CC1 (stereo partly drawn) [Example 36, 5-(7-((S)-2-Methylpyrrolidin-1-yl)-6,7,8,9-tetrahydro-5H-benzo[7]annulen-2-yl)-3-(4-(methylsulfonyl)phenyl)-1H-pyrazolo[3,4-b]pyridine] | > 7.00 | > 7.00
C[C@H]1CCCN1C1CCc2ccc(-c3cnc4[nH]nc(-c5ccc(C(C)(C)O)c(Cl)c5)c4c3)cc2CC1 (stereo partly drawn) [Example 37, 2-(2-Chloro-4-(5-(7-((S)-2-methylpyrrolidin-1-yl)-6,7,8,9-tetrahydro-5H-benzo[7]annulen-2-yl)-1H-pyrazolo[3,4-b]pyridin-3-yl)phenyl)propan-2-ol] | 6.00 to 7.00 | > 7.00
C[C@@H]1CCCN1C1CCc2ccc(-c3cnc4[nH]nc(-c5ccc(S(C)(=O)=O)cc5)c4c3)cc2CC1 (stereo partly drawn) [Example 38, 5-(7-((R)-2-Methylpyrrolidin-1-yl)-6,7,8,9-tetrahydro-5H-benzo[7]annulen-2-yl)-3-(4-(methylsulfonyl)phenyl)-1H-pyrazolo[3,4-b]pyridine] | > 7.00 | > 7.00
C[C@@H]1CCCN1C1CCc2ccc(-c3cnc4[nH]nc(-c5ccc(S(=O)(=O)C6CC6)cc5)c4c3)cc2CC1 (stereo partly drawn) [Example 39, 3-(4-(Cyclopropylsulfonyl)phenyl)-5-(7-((R)-2-methylpyrrolidin-1-yl)-6,7,8,9-tetrahydro-5H-benzo[7]annulen-2-yl)-1H-pyrazolo[3,4-b]pyridine] | 6.00 to 7.00 | > 7.00
O=S(=O)(c1ccc(-c2n[nH]c3ncc(-c4ccc5c(c4)CC[C@@H](N4CCCC4)CC5)cc23)cc1)C1CC1 [Example 40, (S)-3-(4-(Cyclopropylsulfonyl)phenyl)-5-(7-(pyrrolidin-1-yl)-6,7,8,9-tetrahydro-5H-benzo[7]annulen-2-yl)-1H-pyrazolo[3,4-b]pyridine] | > 7.00 | > 7.00
CCS(=O)(=O)c1ccc(-c2n[nH]c3ncc(-c4ccc5c(c4)CC[C@@H](N4CCCC4)CC5)cc23)cc1 [Example 41, (S)-3-(4-(Ethylsulfonyl)phenyl)-5-(7-(pyrrolidin-1-yl)-6,7,8,9-tetrahydro-5H-benzo[7]annulen-2-yl)-1H-pyrazolo[3,4-b]pyridine] | > 7.00 | > 7.00
